Literature values in US20140342022A1, “Natural Product Against Fatigue” (priority 2013, published 2014).

Tested on: EBV-EA activation
Settings: latently infected cells

O=c1c(O)c(-c2ccc(O)c(O)c2)oc2cc(O)cc(O)c12 [quercetin]
EBV-EA activation: inhibits
